EP0513703A2, “Carbamate esters of eseroline having anticholinesterase activity, a process for their preparation and relative pharmaceutical compositions containing them as the active principle” (priority 1991, dated 1992)
Where “and” joins values, the source holds several entries; their conditions need not be identical. Equal values may be shown once.

What was measured:
mice = assay: Toxicity, LD50 by intraperitoneal route (class B derivatives); format: in vivo; settings: death within 24 hours of 50% of the tested animals
Excerpt: In the following table reported are LD50 values determined on mice for the listed compounds and compared with that of physostigmine administered by the same (intraperitoneal) route.

[1] = target: T1, acetylicholinesterase enzyme in the mouse brain (Mus musculus, UniProt P21836); assay: Inhibition of acetylcholinesterase in the mouse brain after single doses (class B derivatives); format: in vivo; settings: single doses in the range 0.4-7mg/kg
T1 construct: from tissue; host or cells: mouse brain
T1 sequence (P21836 32-614): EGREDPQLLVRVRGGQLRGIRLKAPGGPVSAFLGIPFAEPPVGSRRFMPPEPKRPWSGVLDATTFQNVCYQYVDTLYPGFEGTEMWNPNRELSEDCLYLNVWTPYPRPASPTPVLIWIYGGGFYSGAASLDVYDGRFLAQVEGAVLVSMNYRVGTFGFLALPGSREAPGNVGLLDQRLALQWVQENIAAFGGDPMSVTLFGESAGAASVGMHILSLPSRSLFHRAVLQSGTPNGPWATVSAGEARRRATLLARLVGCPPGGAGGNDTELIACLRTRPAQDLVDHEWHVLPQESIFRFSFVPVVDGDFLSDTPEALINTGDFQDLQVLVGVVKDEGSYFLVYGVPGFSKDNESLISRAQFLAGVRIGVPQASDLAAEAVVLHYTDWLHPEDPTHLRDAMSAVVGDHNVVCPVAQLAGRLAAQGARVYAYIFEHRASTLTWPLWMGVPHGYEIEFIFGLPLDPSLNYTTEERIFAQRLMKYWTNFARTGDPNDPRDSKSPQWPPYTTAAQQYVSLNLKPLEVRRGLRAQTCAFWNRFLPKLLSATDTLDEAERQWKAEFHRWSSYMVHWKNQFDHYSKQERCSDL

motor activity = assay: Antagonist effect on the stimulating effect of scopolamine (class C derivatives); format: in vivo; settings: scopolamine 1 mg/kg; oral administration
Method: This is countered by the oral administration of 2.5 mg of ES001, ES002, ES003.

[2] = test system: anticholinesterase activity, on the mouse brain; assay: Inhibition of cholinesterase activity on the mouse brain after single doses (class C derivatives); format: in vivo; settings: for suppression of the enzymatic activity: even at higher doses; for duration of the inhibitory activity compared with physostigmine: mouse brain; for inhibition of the anticholinesterase activity, on the mouse brain (in words): single doses in the range 0.4-7mg/kg
mouse [3] = assay: Toxicity, LD50 by intraperitoneal route (class C derivatives); format: in vivo
Excerpt: In the following table reported are the LD50 values determined on mouse for the compounds listed and compared with the corresponding LD50 value for physostigmine, administered by the same (intraperitoneal) route.

mouse [4] = assay: Spontaneous motility, Dews method modified according to Carminati (class A derivatives); format: in vivo; settings: mouse (Swiss), oral, starting from minimum doses of 4-6 mg/kg
Excerpt: (§1) The Dews method was used, modified according to Carminati (Arch. int. Pharmacodyn. et Thér 181, 68,1969).

[5] = test system: acetylcholinesterase (AchE); format: in vivo, Wistar male rats; settings: rat, oral, 1.5 to 4.5 mg/kg
mice (Swiss strain) [6] = assay: Acute toxicity, LD50 by oral route in mice (class A derivatives); format: in vivo; settings: mouse, suspension in 2 % carboxymethylcellulose, observation 7 days
Excerpt: The letal doses 50 (LD50) by oral route (suspension in 2 % carboxymethylcellulose) are reported herinbelow: TABLE 1

mouse [7] = assay: Spontaneous motility, Dews method modified according to Carminati (class E derivatives); format: in vivo; settings: mouse (Strain Swiss); for decrease of the spontaneous motility (on average): oral, 0.25 mg/kg
Excerpt: as §1

mice (Swiss strain) [8] = assay: Acute toxicity, LD50 by oral route in mice (class E derivatives); format: in vivo; settings: mouse, suspension in 2 % carboxymethylcellulose, observation 7 days
Excerpt: The letal doses 50 (LD50) by oral route (suspension in 2 % carboxymethylcellulose) are reported herinbelow: TABLE 9

Compound: CN1CC[C@@]2(C)c3cc(OC(=O)NCCC(=O)O)ccc3N(C)[C@@H]12 [Compound M001]
- LD50 (mg/kg i.p.) (mice): >20 mg/kg i.p. and <40 mg/kg i.p.
- inhibition of acetylicholinesterase enzyme in the mouse brain (in words) [1]: dose -dependence, reversible inhibition

Compound: CC(CNC(=O)Oc1ccc2c(c1)[C@]1(C)CCN(C)[C@@H]1N2C)C(=O)O (some centres unmarked) [Compound M002]
- LD50 (mg/kg i.p.) (mice): >40 mg/kg i.p. and <80 mg/kg i.p.
- inhibition of acetylicholinesterase enzyme in the mouse brain (in words) [1]: dose -dependence, reversible inhibition

Compound: CN1CC[C@@]2(C)c3cc(OC(=O)NCCCCCCCCC(=O)O)ccc3N(C)[C@@H]12 [Compound M003]
- LD50 (mg/kg i.p.) (mice): >30 mg/kg i.p. and <60 mg/kg i.p.
- inhibition of acetylicholinesterase enzyme in the mouse brain (in words) [1]: dose -dependence, reversible inhibition

Compound: CN1CC[C@@]2(C)c3cc(OC(=O)NC(CO)C(=O)O)ccc3N(C)[C@@H]12 (some centres unmarked) [Compound M006]
- inhibition of acetylicholinesterase enzyme in the mouse brain (in words) [1]: dose -dependence, reversible inhibition

Compound: CN1CC[C@@]2(C)c3cc(OC(=O)NCC(O)CC(=O)O)ccc3N(C)[C@@H]12 (some centres unmarked) [Compound M007]
- LD50 (mg/kg i.p.) (mice): >30 mg/kg i.p. and <60 mg/kg i.p.
- inhibition of acetylicholinesterase enzyme in the mouse brain (in words) [1]: dose -dependence, reversible inhibition

Compound: CC(CC(=O)O)NC(=O)Oc1ccc2c(c1)[C@]1(C)CCN(C)[C@@H]1N2C (some centres unmarked) [Compound M008]
- LD50 (mg/kg i.p.) (mice): >20 mg/kg i.p. and <40 mg/kg i.p.
- inhibition of acetylicholinesterase enzyme in the mouse brain (in words) [1]: dose -dependence, reversible inhibition

Compound: CN1CC[C@@]2(C)c3cc(OC(=O)NCCC(O)CC(=O)O)ccc3N(C)[C@@H]12 (some centres unmarked) [Compound M009]
- LD50 (mg/kg i.p.) (mice): >20 mg/kg i.p. and <40 mg/kg i.p.
- inhibition of acetylicholinesterase enzyme in the mouse brain (in words) [1]: dose -dependence, reversible inhibition

Compound: CC(O)CNC(=O)Oc1ccc2c(c1)[C@]1(C)CCN(C)[C@@H]1N2C (stereo partly drawn) [ES001, trimethyl-1,3a,8 hexahydro-1,2,3a,8,8a-pyrrol(2,3-b)indol-5(3aS,8aR)2-hydroxypropylcarbamate]
- oral dose countering the stimulating effect of scopolamine (motor activity): 2.5 mg
- suppression of the enzymatic activity [2]: do not completely suppress the enzymatic activity
- duration of the inhibitory activity compared with physostigmine [2]: lasts longer than that of physostigmine
- inhibition of the anticholinesterase activity, on the mouse brain (in words) [2]: dose-dependence, reversible inhibition
- LD50 (mg/kg i.p) (mouse [3]): >20 mg/kg i.p and <40 mg/kg i.p

Compound: CCCCCCCC/C=C\CCCCCCCC(=O)OC(C)CNC(=O)Oc1ccc2c(c1)[C@]1(C)CCN(C)[C@@H]1N2C (stereo partly drawn) [ES002, trimethyl-1,3a,8 hexahydro-1,2,3a,8,8a-pyrrol(2,3-b)indol-5(3aS,8aR)-2-oleoxypropylcarbamate]
- oral dose countering the stimulating effect of scopolamine (motor activity): 2.5 mg
- suppression of the enzymatic activity [2]: do not completely suppress the enzymatic activity
- duration of the inhibitory activity compared with physostigmine [2]: lasts longer than that of physostigmine
- inhibition of the anticholinesterase activity, on the mouse brain (in words) [2]: dose-dependence, reversible inhibition
- LD50 (mg/kg i.p) (mouse [3]): >40 mg/kg i.p and <80 mg/kg i.p

Compound: CN1CC[C@@]2(C)c3cc(OC(=O)NCC(C)(O)c4ccccc4)ccc3N(C)[C@@H]12 (stereo partly drawn) [ES004, trimethyl-1,3a,8, hexahydro-1,2,3a, 8,8a-pyrrol (2,3-b) indol-5 (3aS,8aR)-2-hydroxy-2-phenylpropylcarbamate]
- LD50 (mg/kg i.p) (mouse [3]): >10 mg/kg i.p and <15 mg/kg i.p

Compound: CN1CC[C@@]2(C)c3cc(OC(=O)Nc4ccccc4O)ccc3N(C)[C@@H]12 [ES005, trimethyl-1,3a,8 hexahydro-1,2,3a,8,8a-pyrrol(2,3-b)indol-5(3aS,8aR)-2-hydroxy-phenyl-carbamate]
- LD50 (mg/kg i.p) (mouse [3]): >15 mg/kg i.p and <30 mg/kg i.p

Compound: CCCCCCCCCCCCCCCCCC(=O)OC(CCCCCC)CNC(=O)Oc1ccc2c(c1)[C@]1(C)CCN(C)[C@@H]1N2C (stereo partly drawn) [ES007, trimethyl-1,3a,8 hexahydro-1,2,3a,8,8a-pyrrol(2,3-b)indol-5-(3aS,8aR)-2-stearoyloxyoctanylcarbamate]
- LD50 (mg/kg i.p) (mouse [3]): >40 mg/kg i.p and <80 mg/kg i.p

Compound: CN1CC[C@@]2(C)c3cc(OC(=O)NCC(O)CC4CCCCC4)ccc3N(C)[C@@H]12 (stereo partly drawn) [ES008, trimethyl-1,3a,8, hexahydro-1,2,3a,8,-8a pyrrol(2,3-b)indol-5-(3aS,8aR)-3-cyclohexyl-2-hydroxypropylcarbamate]
- LD50 (mg/kg i.p) (mouse [3]): >20 mg/kg i.p and <30 mg/kg i.p

Compound: CC(C)C[C@H](NC(=O)Oc1ccc2c(c1)[C@]1(C)CCN(C)[C@@H]1N2C)C(=O)O [MGS103, (3-aS-cis) 1,2,3,3a,8,8a-hexahydro 1,3a,8-trimethyl pyrrol [2,3-b]-indol-5-ol-L-2(4-methylvaleric acid) carbamate ester]
- decrease of the spontaneous motility (on average) (mouse [4]): ~-30%
- inhibitory cerebral and serumal acetylcholinesterase activity (in words) [5]: clear inhibitory dose-dependent and reversible
- LD50 per os (mice (Swiss strain) [6]): 412.6 ± 46.34 mg/kg

Compound: CC(C)[C@H](NC(=O)Oc1ccc2c(c1)[C@]1(C)CCN(C)[C@@H]1N2C)C(=O)O [MGS104, (3-as-cis) 1,2,3,3a,8,8a-hexahydro 1,3a,8-trimethyl pyrrol [2,3-b]-indol-5-ol-L-(3-methylbutyric acid) carbamate ester]
- decrease of the spontaneous motility (on average) (mouse [4]): ~-30%
- inhibitory cerebral and serumal acetylcholinesterase activity (in words) [5]: clear inhibitory dose-dependent and reversible
- LD50 per os (mice (Swiss strain) [6]): 423.0 ± 35.21 mg/kg

Compound: CN1CC[C@@]2(C)c3cc(OC(=O)NCC(=O)O)ccc3N(C)[C@@H]12 [MGS105, (3-as-cis) 1,2,3,3a,8,8a-hexahydro 1,3a,8-trimethyl pyrrol [2,3-b]-indol-5-ol (acetic acid) carbamate ester]
- decrease of the spontaneous motility (on average) (mouse [4]): ~-30%
- inhibitory cerebral and serumal acetylcholinesterase activity (in words) [5]: clear inhibitory dose-dependent and reversible
- LD50 per os (mice (Swiss strain) [6]): 345.6 ± 24.86 mg/kg

Compound: CN1CC[C@@]2(C)c3cc(OC(=O)NCCCCCCCCNC(=O)Oc4ccc5c(c4)[C@]4(C)CCN(C)[C@@H]4N5C)ccc3N(C)[C@@H]12 [MS002, Salicylate of (3a S-cis) - 1,2,3a,8,8a hexahydro - 1,3a,- trimethyl pyrrol [2,3-b]-indol-5-ol-1,8-octandicarbamate ester]
- oral dose causing a significant decrease of the spontaneous motility (mouse [7]): 0.25 mg/kg
- decrease of the spontaneous motility (on average) (mouse [7]): ~-25%
- LD50 per os (mice (Swiss strain) [8]): 48.98 ± 6.31 mg/kg

Compound: CN1CC[C@@]2(C)c3cc(OC(=O)NCCCCCNC(=O)Oc4ccc5c(c4)[C@]4(C)CCN(C)[C@@H]4N5C)ccc3N(C)[C@@H]12 [MS007, (3a S-cis) - 1,2,3,3a,8,8a hexahydro - 1,3a,8 - trimethyl pyrrol [2,3-b]-indol-5-ol-1,5-pentandicarbamate ester]
- oral dose causing a significant decrease of the spontaneous motility (mouse [7]): 0.25 mg/kg
- decrease of the spontaneous motility (on average) (mouse [7]): ~-25%
- LD50 per os (mice (Swiss strain) [8]): 64.26 ± 10.29 mg/kg

Compound: CN1CC[C@@]2(C)c3cc(OC(=O)NCCCCCCNC(=O)Oc4ccc5c(c4)[C@]4(C)CCN(C)[C@@H]4N5C)ccc3N(C)[C@@H]12 [MS010, (3a S-cis) - 1,2,3,3a,8,8a hexahydro - 1,3a,8 - trimethyl pyrrol [2,3-b]-indol-5-ol-1,6-hexandicarbamate ester]
- oral dose causing a significant decrease of the spontaneous motility (mouse [7]): 0.25 mg/kg
- decrease of the spontaneous motility (on average) (mouse [7]): ~-25%
- LD50 per os (mice (Swiss strain) [8]): 50.65 ± 5.48 mg/kg

Compound: CN1CC[C@@]2(C)c3cc(OC(=O)NCCCCCCCNC(=O)Oc4ccc5c(c4)[C@]4(C)CCN(C)[C@@H]4N5C)ccc3N(C)[C@@H]12 [MS011, (3a S-cis) - 1,2,3,3a,8,8a hexahydro - 1,3a,8 - trimethyl pyrrol [2,3-b]-indol-5-ol-1,7-heptandicarbamate ester]
- oral dose causing a significant decrease of the spontaneous motility (mouse [7]): 0.25 mg/kg
- decrease of the spontaneous motility (on average) (mouse [7]): ~-25%
- LD50 per os (mice (Swiss strain) [8]): 63.31 ± 9.32 mg/kg

Compound: trimethyl -1,3a,8-hexahydro-1,2,3a,8,8a-pyrrol(2,3-b)indol-5-(3aS,8aR)12-hydroxystearylpropylcarbamate [ES003]
- oral dose countering the stimulating effect of scopolamine (motor activity): 2.5 mg
- suppression of the enzymatic activity [2]: do not completely suppress the enzymatic activity
- duration of the inhibitory activity compared with physostigmine [2]: lasts longer than that of physostigmine
- inhibition of the anticholinesterase activity, on the mouse brain (in words) [2]: dose-dependence, reversible inhibition
- LD50 (mg/kg i.p) (mouse [3]): >40 mg/kg i.p and <80 mg/kg i.p
